From patent US20170253607A1, “LONG-ACTING HIV PROTEASE INHIBITOR” (Shionogi & Co., Ltd., priority 2014, published 2017)

biological target: HIV-1 PR (Human immunodeficiency virus type 1 group M subtype B, UniProt P04585); experiment: HIV-protease inhibitory activity assay (FRET peptide substrate); format: biochemical; conditions: Test Example 1
Outline: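 Compounds were preincubated with HIV-1 PR (0.83 ng) at room temperature in pH 4.8 NaAc buffer (0.5 M NaCl, EDTA, DTT, Tween 20), then HiLyte Fluor 488/QXL 520 FRET peptide (2 μmol/L final) was added for 60 min. Fluorescence was read at 485/535 nm, and IC50 was fitted by four-parameter logistic regression.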

| Structure (SMILES) | IC50 [nM] |
| --- | --- |
| COc1ccc(S(=O)(=O)N(CC(C)C)CC(O)C(Cc2ccc(N(C)Cc3ccc(OC)cc3C(=O)Nc3sc4c(c3C(=O)O)CC(C)(C)CC4)cc2)NC(=O)OC2COC3(C)OCCC23)cc1 (stereo not drawn) [Compound I-683] | 5.74 |
| COc1ccc(S(=O)(=O)N(CC(C)C)CC(O)C(Cc2ccc(N3C(=O)c4cccc(-c5sc6c(c5C(=O)O)CC(C)(C)CC6)c4C3=O)cc2)NC(=O)OC2COC3(C)OCCC23)cc1 (stereo not drawn) [Compound I-620] | 2.22 |
| COc1ccc(S(=O)(=O)N(CC(C)C)CC(O)C(Cc2ccc(N3CCC(c4ccc(-c5sc6c(c5C(=O)O)CC(C)(C)CC6)cc4)C3)cc2)NC(=O)OC2COC3(C)OCCC23)cc1 (stereo not drawn) [Compound I-576] | 4.95 |
| COc1ccc(S(=O)(=O)N(CC(C)C)CC(O)C(Cc2ccc(N(C)Cc3ccccc3C(=O)N(C)c3sc4c(c3C(=O)O)CC(C)(C)CC4)cc2)NC(=O)OC2COC3(C)OCCC23)cc1 (stereo not drawn) [Compound I-590] | 2.82 |
| COc1ccc(S(=O)(=O)N(CC(C)C)CC(O)C(Cc2ccc(CN(C)C3CCCCC3c3sc4c(c3C(=O)O)CC(C)(C)CC4)cc2)NC(=O)OC2COC3(C)OCCC23)cc1 (stereo not drawn) [Compound I-345] | 1.82 |
| COc1ccc(S(=O)(=O)N(CC(C)C)CC(O)C(Cc2ccc(N3Cc4nc5ccccc5cc4C3=O)cc2)NC(=O)OC2COC3(C)OCCC23)cc1 (stereo not drawn) [Compound I-771] | 2 |
| COc1ccc(S(=O)(=O)N(CC(C)C)CC(O)C(Cc2ccc(N(C)CCOc3ccccc3-c3sc4c(c3C(=O)O)CC(C)(C)CC4)cc2)NC(=O)OC2COC3OCCC23)cc1 (stereo not drawn) [Compound I-864] | 2.25 |
| COc1ccc(S(=O)(=O)N(CC(C)C)CC(O)C(Cc2ccc(-c3ccc(Cn4nc5c(c4C(=O)O)CC(C)(C)CC5)cc3)cc2)NC(=O)OC2COC3(C)OCCC23)cc1 (stereo not drawn) [Compound I-217] | 1.95 |
| COc1ccc(S(=O)(=O)N(CC(C)C)CC(O)C(Cc2ccc(OCc3cccc(-c4sc5c(c4C(=O)O)CC(C)(C)CC5)c3C)cc2)NC(=O)OC2COC3(C)OCCC23)cc1 (stereo not drawn) [Compound I-92] | 1.88 |
| COc1ccc(S(=O)(=O)N(CC(C)C)CC(O)C(Cc2ccc(N(C)Cc3cc(C(F)(F)F)ccc3-n3nc(C(=O)O)c4c3CCC(C)(C)C4)cc2)NC(=O)OC2COC3(C)OCCC23)cc1 (stereo not drawn) [Compound I-447] | 2.37 |
| COc1ccc(S(=O)(=O)N(CC(C)C)CC(O)C(Cc2ccc(N3CCC(C(=O)Nc4sc5c(c4C(=O)O)CC(C)(C)CC5)C3)cc2)NC(=O)OC2COC3(C)OCCC23)cc1 (stereo not drawn) [Compound I-645] | 2.51 |
| COc1ccc(S(=O)(=O)N(CC(C)C)CC(O)C(Cc2ccc(OCc3ccccc3-c3sc(-c4ccccc4)cc3C(=O)O)cc2)NC(=O)OC2COC3OCCC23)cc1 (stereo not drawn) [Compound I-848] | 0.89 |
| COc1ccc(S(=O)(=O)N(CC(C)C)CC(O)C(Cc2ccc(Oc3ccc(-c4sc5c(c4C(=O)O)CC(C)(C)CC5)cc3)cc2)NC(=O)OC2COC3(C)OCCC23)cc1 (stereo not drawn) [Compound I-133] | 1.53 |
| COc1ccc(S(=O)(=O)N(CC(C)C)CC(O)C(Cc2ccc(NCc3ccccc3-c3c(C(=O)O)cnc4sccc34)cc2)NC(=O)OC2COC3(C)OCCC23)cc1 (stereo not drawn) [Compound I-504] | 1.93 |
| COc1ccc(S(=O)(=O)N(CC(C)C)CC(O)C(Cc2ccc(N3CCN(c4ccccc4-c4sc5c(c4C(=O)O)CC(C)(C)CC5)C3=O)cc2)NC(=O)OC2COC3(C)OCCC23)cc1 (stereo not drawn) [Compound I-390] | 1.84 |
| COc1ccc(S(=O)(=O)N(CC(C)C)CC(O)C(Cc2ccc(NCCCc3sc4c(c3C(=O)O)CC(C)(C)CC4)cc2)NC(=O)OC2COC3(C)OCCC23)cc1 (stereo not drawn) [Compound I-335] | 1.81 |
| COc1ccc(S(=O)(=O)N(CC(C)C)CC(O)C(Cc2ccc(NCc3ccc(C(=O)Nc4sc5c(c4C(=O)O)CC(C)(C)CC5)s3)cc2)NC(=O)OC2COC3(C)OCCC23)cc1 (stereo not drawn) [Compound I-441] | 2.61 |
| COc1ccc(S(=O)(=O)N(CC(C)C)CC(O)C(Cc2ccc(OCc3ccccc3-c3ccc4c(O)c(-c5ccc(F)cc5)c(=O)n(-c5ccccc5)c4c3)cc2)NC(=O)OC2COC3(C)OCCC23)cc1 (stereo not drawn) [Compound I-75] | 1.19 |
| COc1ccc(S(=O)(=O)N(CC(C)C)CC(O)C(Cc2ccc(NCc3ccccc3-c3c(C(=O)O)cnc4onc(C)c34)cc2)NC(=O)OC2COC3(C)OCCC23)cc1 (stereo not drawn) [Compound I-505] | 1.55 |
| COc1ccc(S(=O)(=O)N(CC(C)C)CC(O)C(Cc2ccc(NCc3ccc(Cl)cc3C(=O)Nc3sc4c(c3C(=O)O)CC(C)(C)CC4)cc2)NC(=O)OC2COC3(C)OCCC23)cc1 (stereo not drawn) [Compound I-657] | 8.14 |
| COc1ccc(S(=O)(=O)N(CC(C)C)CC(O)C(Cc2ccc(NCc3cc(Oc4cccnc4)ccc3-c3sc4c(c3C(=O)O)CC(C)(C)CC4)cc2)NC(=O)OC2COC3(C)OCCC23)cc1 (stereo not drawn) [Compound I-688] | 2.59 |
| COc1ccc(S(=O)(=O)N(CC(C)C)CC(O)C(Cc2ccc(NCC3=C(c4sc5c(c4C(=O)O)CC(C)(C)CC5)COC3)cc2)NC(=O)OC2COC3(C)OCCC23)cc1 (stereo not drawn) [Compound I-527] | 1.99 |
| COc1ccc(S(=O)(=O)N(CC(C)C)CC(O)C(Cc2ccc(NCc3cc(C)ccc3NC(=O)c3sc4c(c3C(=O)O)CC(C)(C)CC4)cc2)NC(=O)OC2COC3(C)OCCC23)cc1 (stereo not drawn) [Compound I-610] | 2.16 |

| Structure (SMILES) | IC50 [nM] |
| --- | --- |
| COc1ccc(S(=O)(=O)N(CC(C)C)CC(O)C(Cc2ccc(OCc3cccc(OC)c3-c3sc4c(c3C(=O)O)CC(C)(C)CC4)cc2)NC(=O)OC2COC3(C)OCCC23)cc1 (stereo not drawn) [Compound I-186] | 2.14 |
| COc1ccc(S(=O)(=O)N(CC(C)C)CC(O)C(Cc2ccc(NCCn3nc4c(c3C(=O)O)CC(C)(C)CC4)cc2)NC(=O)OC2COC3(C)OCCC23)cc1 (stereo not drawn) [Compound I-516] | 2.29 |
| COc1ccc(S(=O)(=O)N(CC(C)C)CC(O)C(Cc2ccc(NCc3ccc(C)cc3C(=O)Nc3sc4c(c3C(=O)O)CC(C)(C)CC4)cc2)NC(=O)OC2COC3(C)OCCC23)cc1 (stereo not drawn) [Compound I-716] | 3.95 |
| CC(C)CN(C[C@@H](O)[C@H](Cc1ccccc1)NC(=O)O[C@H]1CO[C@@]2(C)OCC[C@@H]12)S(=O)(=O)c1ccc2nc(NCc3sc4c(c3C(=O)O)CC(C)(C)CC4)sc2c1 [Compound I-26] | 2.01 |
| CC1(C)CCc2sc(-c3cccc(CCCN(C[C@@H](O)[C@H](Cc4ccccc4)NC(=O)O[C@H]4CO[C@@]5(C)OCC[C@@H]45)S(=O)(=O)c4ccc5ncsc5c4)c3)c(C(=O)O)c2C1 [Compound I-36] | 1.88 |
| COc1ccc(S(=O)(=O)N(CC(C)C)CC(O)C(Cc2ccc(N(C)Cc3ccc(Oc4ccc(-c5sc6c(c5C(=O)O)CC(C)(C)CC6)c(C)c4)cc3)cc2)NC(=O)OC2COC3(C)OCCC23)cc1 (stereo not drawn) [Compound I-572] | 30 |
| COc1ccc(S(=O)(=O)N(CC(C)C)CC(O)C(Cc2ccc(N3CCN(c4ccc(-c5sc6c(c5C(=O)O)CC(C)(C)CC6)cc4)CC3)cc2)NC(=O)OC2COC3(C)OCCC23)cc1 (stereo not drawn) [Compound I-209] | 3.07 |
| COc1ccc(S(=O)(=O)N(CC(C)C)CC(O)C(Cc2ccc(Nc3ncc(-c4sc5c(c4C(=O)O)CC(C)(C)CC5)cn3)cc2)NC(=O)OC2COC3(C)OCCC23)cc1 (stereo not drawn) [Compound I-433] | 2.49 |
| COc1ccc(S(=O)(=O)N(CC(C)C)CC(O)C(Cc2ccc(N(Cc3ccccn3)Cc3ccccc3-c3sc4c(c3C(=O)O)CC(C)(C)CC4)cc2)NC(=O)OC2COC3(C)OCCC23)cc1 (stereo not drawn) [Compound I-486] | 4.59 |
| COc1ccc(S(=O)(=O)N(CC(C)C)CC(O)C(Cc2ccc(N(C)CCCc3sc4c(c3C(=O)O)CC(C)(C)CC4)cc2)NC(=O)OC2COC3(C)OCCC23)cc1 (stereo not drawn) [Compound I-336] | 2.13 |
| CC1(C)CCc2sc(-c3ccc(C(F)(F)F)cc3CNc3ccc(CC(NC(=O)OC4COC5OCCC45)C(O)CN(CC4CCCC4)S(=O)(=O)c4ccc5c(c4)OCO5)cc3)c(C(=O)O)c2C1 (stereo not drawn) [Compound I-876] | 7.13 |
| CC=Cc1ccc(-c2sc3c(c2C(=O)O)CC(C)(C)CC3)c(CNc2ccc(CC(NC(=O)OC3COC4(C)OCCC34)C(O)CN(CC(C)C)S(=O)(=O)c3ccc(OC)cc3)cc2)c1 (stereo not drawn) [Compound I-723] | 1.65 |
| COc1ccc(S(=O)(=O)N(CC(C)C)CC(O)C(Cc2ccc(Nc3cccc(-c4sc5c(c4C(=O)O)CC(C)(C)CC5)c3)cc2)NC(=O)OC2COC3(C)OCCC23)cc1 (stereo not drawn) [Compound I-478] | 2.25 |
| COc1ccc(S(=O)(=O)N(CC(C)C)CC(O)C(Cc2ccc(N(C)Cc3nc(N4CCCCC4)sc3-c3sc4c(c3C(=O)O)CC(C)(C)CC4)cc2)NC(=O)OC2COC3(C)OCCC23)cc1 (stereo not drawn) [Compound I-756] | 3.46 |
| COc1ccc(S(=O)(=O)N(CC(C)C)CC(O)C(Cc2ccc(N(C)Cc3cc(Oc4ccccn4)ccc3-c3sc4c(c3C(=O)O)CC(C)(C)CC4)cc2)NC(=O)OC2COC3(C)OCCC23)cc1 (stereo not drawn) [Compound I-686] | 3.6 |
| COc1ccc(S(=O)(=O)N(CC(C)C)CC(O)C(Cc2ccc(OCCNC(=O)c3cc(Cl)ccc3O)cc2)NC(=O)OC2COC3(C)OCCC23)cc1 (stereo not drawn) [Compound I-170] | 0.91 |
| COc1ccc(S(=O)(=O)N(CC(C)C)CC(O)C(Cc2ccc(NCc3ccc(-c4sc5c(c4C(=O)O)CC(C)(C)CC5)o3)cc2)NC(=O)OC2COC3(C)OCCC23)cc1 (stereo not drawn) [Compound I-288] | 2.19 |
| CC(C)CN(CC(O)C(Cc1ccc(OCc2ccccc2-c2ccccc2C(=O)O)cc1)NC(=O)OC1COC2(C)OCCC12)S(=O)(=O)c1ccc2ncsc2c1 (stereo not drawn) [Compound I-64] | 1.3 |
| COc1ccc(S(=O)(=O)N(CC(C)C)CC(O)C(Cc2ccc(OCc3ccccc3-c3ccc4c(O)c(-c5ccc(Oc6ccccc6)cc5)c(=O)n(C)c4c3)cc2)NC(=O)OC2COC3OCCC23)cc1 (stereo not drawn) [Compound I-822] | 2.08 |
| COc1ccc(S(=O)(=O)N(CC(C)C)CC(O)C(Cc2ccc(N(C)Cc3cc(OC)ccc3C(=O)Nc3sc4c(c3C(=O)O)CC(C)(C)CC4)cc2)NC(=O)OC2COC3(C)OCCC23)cc1 (stereo not drawn) [Compound I-762] | 6.23 |
| COc1ccc(S(=O)(=O)N(CC(C)C)CC(O)C(Cc2ccc(OCc3ccccc3NC(=O)c3cc(Cl)cc(Cl)c3O)cc2)NC(=O)OC2COC3(C)OCCC23)cc1 (stereo not drawn) [Compound I-69] | 1.17 |
| COc1ccc(S(=O)(=O)N(CC(C)C)CC(O)C(Cc2ccc(NCc3ccc(N4CC(C)(C)C4=O)cc3-c3sc4c(c3C(=O)O)CC(C)(C)CC4)cc2)NC(=O)OC2COC3(C)OCCC23)cc1 (stereo not drawn) [Compound I-740] | 1.6 |
